Experimental data from patent US9289402B2, “Metal entrapped bioactive composites” (YISSUM RESEARCH DEVELOPMENT COMPANY OF THE HEBREW …, priority 2010, dated 2016).

Tests used:
[1] = test system: Escherichia coli strain MG1655; experiment: Bactericidal kinetic test towards E. coli MG1655; type: cell-based; details: HEPES buffer 0.04 M pH 7.4, 26 °C, ca. 10^6 CFU/ml, concentrations of Table 1 (composite 50.0 ppm, AgNO3 0.1 ppm, CHD 0.75 ppm)
Method: A wild-type Escherichia coli strain MG1655 was used as a target organism to evaluate the bactericidal efficacy of the active ingredients i.e. CHD, metallic and ionic Ag and the CHD@Ag composite. Bacteria were maintained on MacConkey agar plates at […]. Prior to each experiment, an overnight culture was prepared by seeding single colonies into 30 ml of Luria Bertani (LB) broth at 37° C. with shaking. This overnight culture was then washed three times by centrifugation (10 min, 4850 rpm, at 25° C.) and resuspended in HEPES buffer (0.04M, pH 7.4). The resulting washed pellet was resuspended in HEPES and brought to an optical density (OD590) of 0.3 which corresponds to ca. 10^8 CFU/ml. Enumeration of bacteria was performed by serial dilution and plating via the pour-plate technique. The inoculated plates were incubated at 37° C. for 24 h and bacterial concentrations were determined by enumerating the resulting CFUs. The bactericidal kinetic tests were carried out in five acid-washed 500 ml Erlenmeyer flasks filled with 200 ml HEPES buffer. The flasks were capped with dense paper caps to allow oxygen supply. Typically, the active ingredients at the desired concentrations and combinations were added first and then 2.0 ml of the E. coli suspension was added to final concentration of ca. 10^6 CFU/ml. The active ingredients included one of the following: CHD@Ag composite, MeOH-extracted composite, AgNO3 solution, CHD solution and combinations thereof in final concentrations and the amounts which are summarized in Table 1. [table] The vessels were kept in an incubated shaker at 26° C. under dark conditions. The disinfection kinetics were followed by sequentially sampling 1.0 ml aliquots form the vessels at the designated times. These samples were neutralized by dilution (1:1) with a neutralizing solution (0.2% w/w sodium thioglycolate, 1.9% w/w sodium thiosulphate, 1% w/w Tween 80, 1.4% w/w lecithin) for 5 min. The efficiency of this neutralization procedure was validated in separate control experiments. […] The plates were incubated at 37° C. for 24 h and bacterial colonies were counted. […]

P. aeruginosa PU21 = experiment: Bactericidal kinetic test towards P. aeruginosa PU21; type: cell-based, Pseudomonas aeruginosa; details: FIG. 8

Row | SMILES | biocidal activity towards E. coli MG1655 [1] | bactericidal effect towards P. aeruginosa PU21 (P. aeruginosa PU21) | biocidal activity towards E. coli MG1655 ([1]; listed as CHD solution)
1 | O=[N+]([O-])[O-].[Ag+] [Ag^+, AgNO3] | no biocidal activity | – | –
2 | N=C(NCCCCCCNC(=N)NC(=N)Nc1ccc(Cl)cc1)NC(=N)Nc1ccc(Cl)cc1.O=C(O)[C@H](O)[C@@H](O)[C@H](O)[C@H](O)CO.O=C(O)[C@H](O)[C@@H](O)[C@H](O)[C@H](O)CO [CHD, Chlorhexidine digluconate] | only slightly affected | weak bactericidal effect | only very weak biocidal activity
